Laboratory results taken from ChEMBL document CHEMBL4507298 (2021).

Columns and labels:
Details in all cases: Compound concentration 10.0 uM
[1] = biological target: 5-hydroxytryptamine receptor 2A (Homo sapiens) (UniProt P28223)
[2] = biological target: T1, 5-hydroxytryptamine receptor 2C (Homo sapiens) (UniProt P28335)
T1 sequence (whole entry): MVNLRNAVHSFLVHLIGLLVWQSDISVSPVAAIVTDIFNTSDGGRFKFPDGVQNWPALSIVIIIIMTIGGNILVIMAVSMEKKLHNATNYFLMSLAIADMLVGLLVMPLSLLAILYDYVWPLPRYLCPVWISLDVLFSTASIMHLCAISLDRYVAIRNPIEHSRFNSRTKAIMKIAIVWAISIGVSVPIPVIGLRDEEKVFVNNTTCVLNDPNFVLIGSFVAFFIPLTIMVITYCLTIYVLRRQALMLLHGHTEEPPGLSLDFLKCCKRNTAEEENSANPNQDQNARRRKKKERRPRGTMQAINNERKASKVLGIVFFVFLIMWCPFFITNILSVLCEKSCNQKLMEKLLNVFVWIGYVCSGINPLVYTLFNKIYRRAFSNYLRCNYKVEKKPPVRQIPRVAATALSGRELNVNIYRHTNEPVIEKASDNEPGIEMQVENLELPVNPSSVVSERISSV

[3] = biological target: T2, 5-hydroxytryptamine receptor 3A (Homo sapiens) (UniProt P46098)
T2 sequence (whole entry): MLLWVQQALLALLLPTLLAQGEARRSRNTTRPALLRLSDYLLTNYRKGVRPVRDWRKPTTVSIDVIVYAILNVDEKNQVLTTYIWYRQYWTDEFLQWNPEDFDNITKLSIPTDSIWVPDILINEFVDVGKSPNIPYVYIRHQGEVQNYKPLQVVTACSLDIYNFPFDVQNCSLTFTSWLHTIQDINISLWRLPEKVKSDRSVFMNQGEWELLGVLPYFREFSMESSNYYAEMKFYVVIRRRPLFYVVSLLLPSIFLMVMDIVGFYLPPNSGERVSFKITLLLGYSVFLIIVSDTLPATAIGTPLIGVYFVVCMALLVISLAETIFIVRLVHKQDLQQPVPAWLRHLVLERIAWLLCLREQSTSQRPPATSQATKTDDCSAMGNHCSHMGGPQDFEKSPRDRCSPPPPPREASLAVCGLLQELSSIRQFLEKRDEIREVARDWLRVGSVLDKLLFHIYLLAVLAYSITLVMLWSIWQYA

[4] = biological target: T3, D(4) dopamine receptor (Homo sapiens) (UniProt P21917)
T3 sequence (whole entry): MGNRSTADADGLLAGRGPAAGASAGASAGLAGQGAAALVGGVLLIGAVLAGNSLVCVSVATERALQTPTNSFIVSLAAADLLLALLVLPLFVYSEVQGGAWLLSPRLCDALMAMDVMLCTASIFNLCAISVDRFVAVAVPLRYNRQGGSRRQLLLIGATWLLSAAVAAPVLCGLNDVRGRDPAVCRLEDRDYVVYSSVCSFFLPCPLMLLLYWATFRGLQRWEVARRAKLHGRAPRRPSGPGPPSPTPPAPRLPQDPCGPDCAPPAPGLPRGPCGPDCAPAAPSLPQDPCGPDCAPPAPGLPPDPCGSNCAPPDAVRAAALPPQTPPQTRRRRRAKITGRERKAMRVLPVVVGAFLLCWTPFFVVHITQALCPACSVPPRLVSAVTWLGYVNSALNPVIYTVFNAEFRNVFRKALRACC

[5] = biological target: Kappa-type opioid receptor (Homo sapiens) (UniProt P41145)
Chain of Kappa-type opioid receptor (Homo sapiens) (P41145 whole entry): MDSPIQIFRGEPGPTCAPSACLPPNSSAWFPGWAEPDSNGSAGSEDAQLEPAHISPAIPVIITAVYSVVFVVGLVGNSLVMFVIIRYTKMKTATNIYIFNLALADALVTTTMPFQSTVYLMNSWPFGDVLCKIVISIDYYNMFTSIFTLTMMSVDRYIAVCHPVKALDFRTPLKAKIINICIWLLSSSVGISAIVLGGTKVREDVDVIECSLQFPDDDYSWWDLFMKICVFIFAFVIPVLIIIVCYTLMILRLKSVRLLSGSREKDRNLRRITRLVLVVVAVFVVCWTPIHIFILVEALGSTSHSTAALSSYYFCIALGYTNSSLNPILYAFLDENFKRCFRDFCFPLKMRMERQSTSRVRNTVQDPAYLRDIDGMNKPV

[6] = biological target: T4, GABA-A receptor; anion channel (Rattus norvegicus) (UniProt O09028+P15431+P18506+P18508+P19969+P20236+P23574+P23576+P28471+P28473+P30191+P62813+P63079+P63138+Q91ZM7+Q9ES14)
[7] = biological target: Histamine H2 receptor (Homo sapiens) (UniProt P25021)
Chain of Histamine H2 receptor (Homo sapiens) (P25021 whole entry): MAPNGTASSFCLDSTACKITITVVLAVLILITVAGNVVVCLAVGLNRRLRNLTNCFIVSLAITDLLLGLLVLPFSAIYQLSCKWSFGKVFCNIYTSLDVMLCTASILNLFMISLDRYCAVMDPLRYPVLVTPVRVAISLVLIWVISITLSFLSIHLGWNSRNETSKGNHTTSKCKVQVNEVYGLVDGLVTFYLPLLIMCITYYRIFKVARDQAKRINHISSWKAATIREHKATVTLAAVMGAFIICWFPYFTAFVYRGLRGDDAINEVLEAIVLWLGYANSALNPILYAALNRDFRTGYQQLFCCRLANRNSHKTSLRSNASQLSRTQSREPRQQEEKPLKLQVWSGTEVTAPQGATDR

[8] = biological target: Alpha-1A adrenergic receptor (Homo sapiens) (UniProt P35348)
Chain of Alpha-1A adrenergic receptor (Homo sapiens) (P35348 whole entry): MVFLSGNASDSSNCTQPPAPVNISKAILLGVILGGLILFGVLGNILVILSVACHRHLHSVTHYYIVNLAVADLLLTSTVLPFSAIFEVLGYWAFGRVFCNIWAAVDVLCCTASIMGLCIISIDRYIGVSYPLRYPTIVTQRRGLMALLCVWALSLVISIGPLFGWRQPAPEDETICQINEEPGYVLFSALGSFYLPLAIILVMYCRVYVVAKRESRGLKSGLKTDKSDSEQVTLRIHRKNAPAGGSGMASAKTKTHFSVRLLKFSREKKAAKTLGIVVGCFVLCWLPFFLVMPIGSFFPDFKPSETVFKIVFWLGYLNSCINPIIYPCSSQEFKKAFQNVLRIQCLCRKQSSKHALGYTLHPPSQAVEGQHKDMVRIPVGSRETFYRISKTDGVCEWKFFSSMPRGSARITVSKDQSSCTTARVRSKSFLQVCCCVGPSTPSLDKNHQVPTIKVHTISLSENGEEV

[9] = biological target: T5, Alpha-2B adrenergic receptor (Homo sapiens) (UniProt P18089)
T5 sequence (whole entry): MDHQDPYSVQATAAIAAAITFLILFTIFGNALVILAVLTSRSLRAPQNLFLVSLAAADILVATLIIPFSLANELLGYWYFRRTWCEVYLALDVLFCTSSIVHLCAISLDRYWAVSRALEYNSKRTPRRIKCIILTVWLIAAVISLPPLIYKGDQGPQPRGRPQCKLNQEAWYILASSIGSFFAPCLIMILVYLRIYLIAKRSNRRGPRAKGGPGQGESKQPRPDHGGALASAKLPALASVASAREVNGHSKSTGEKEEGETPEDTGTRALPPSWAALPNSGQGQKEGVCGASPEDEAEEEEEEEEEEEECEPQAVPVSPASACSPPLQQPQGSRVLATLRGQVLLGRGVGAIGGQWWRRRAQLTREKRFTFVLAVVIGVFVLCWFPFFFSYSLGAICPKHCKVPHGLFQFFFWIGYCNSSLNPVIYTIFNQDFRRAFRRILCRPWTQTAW

[10] = biological target: T6, Alpha-2C adrenergic receptor (Homo sapiens) (UniProt P18825)
T6 sequence (whole entry): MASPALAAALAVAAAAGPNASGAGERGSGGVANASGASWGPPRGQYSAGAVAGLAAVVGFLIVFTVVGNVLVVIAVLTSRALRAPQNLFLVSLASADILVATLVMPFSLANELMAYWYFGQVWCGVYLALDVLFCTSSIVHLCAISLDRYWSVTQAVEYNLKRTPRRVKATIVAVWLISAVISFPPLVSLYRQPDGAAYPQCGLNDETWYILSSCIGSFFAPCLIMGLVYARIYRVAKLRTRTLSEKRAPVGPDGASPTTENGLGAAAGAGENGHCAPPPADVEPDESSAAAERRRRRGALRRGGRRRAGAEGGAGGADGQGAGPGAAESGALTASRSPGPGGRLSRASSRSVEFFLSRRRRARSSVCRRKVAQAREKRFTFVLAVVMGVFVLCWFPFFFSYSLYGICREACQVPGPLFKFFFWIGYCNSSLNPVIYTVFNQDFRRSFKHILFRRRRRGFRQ

[11] = biological target: Muscarinic acetylcholine receptor M3 (Homo sapiens) (UniProt P20309)
Chain of Muscarinic acetylcholine receptor M3 (Homo sapiens) (P20309 whole entry, looked up): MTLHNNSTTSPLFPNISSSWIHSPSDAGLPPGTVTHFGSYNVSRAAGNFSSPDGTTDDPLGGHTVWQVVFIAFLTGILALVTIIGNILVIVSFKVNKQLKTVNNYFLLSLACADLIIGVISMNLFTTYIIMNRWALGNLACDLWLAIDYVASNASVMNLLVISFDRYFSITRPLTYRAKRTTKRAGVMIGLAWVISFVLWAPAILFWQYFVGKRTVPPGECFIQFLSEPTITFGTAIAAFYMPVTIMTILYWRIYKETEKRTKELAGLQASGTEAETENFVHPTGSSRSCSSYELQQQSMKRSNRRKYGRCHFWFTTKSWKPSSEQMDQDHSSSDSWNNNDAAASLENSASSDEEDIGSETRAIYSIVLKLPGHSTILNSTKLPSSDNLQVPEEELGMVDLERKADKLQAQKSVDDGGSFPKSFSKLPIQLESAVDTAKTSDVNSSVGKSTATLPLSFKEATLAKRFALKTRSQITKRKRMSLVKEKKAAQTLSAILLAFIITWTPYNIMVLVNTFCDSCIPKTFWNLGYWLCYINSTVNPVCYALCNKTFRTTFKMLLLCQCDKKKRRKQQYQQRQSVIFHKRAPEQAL

[12] = biological target: T4, GABA-A receptor; anion channel (Rattus norvegicus); remark: listed apart in the source

Chain of 5-hydroxytryptamine receptor 2A (Homo sapiens) (P28223 whole entry): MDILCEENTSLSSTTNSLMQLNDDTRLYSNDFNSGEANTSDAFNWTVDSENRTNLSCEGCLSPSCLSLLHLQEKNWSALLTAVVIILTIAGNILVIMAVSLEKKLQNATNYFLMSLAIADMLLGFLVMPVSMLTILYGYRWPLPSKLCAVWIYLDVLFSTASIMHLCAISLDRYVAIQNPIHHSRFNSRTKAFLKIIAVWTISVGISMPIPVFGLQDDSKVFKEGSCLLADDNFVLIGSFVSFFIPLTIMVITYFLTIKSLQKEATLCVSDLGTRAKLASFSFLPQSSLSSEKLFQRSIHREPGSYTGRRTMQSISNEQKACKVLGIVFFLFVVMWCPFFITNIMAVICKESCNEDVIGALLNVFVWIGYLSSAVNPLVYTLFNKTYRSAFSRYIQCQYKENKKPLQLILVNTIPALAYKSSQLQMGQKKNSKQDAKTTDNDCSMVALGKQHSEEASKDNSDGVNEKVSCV

Row | Structure (SMILES) | inhibition [1] | inhibition [2] | inhibition [3] | inhibition [4] | inhibition [5] | inhibition [6] | inhibition [7] | inhibition [8] | inhibition [9] | inhibition [10] | inhibition [11] | inhibition [12]
1 | COc1ccc2cc(OCC3(C(=O)O)CN(C(=O)c4ccc(F)cc4)C3)ccc2c1 [PF-04418948] | 6.25% | 12.3% | 0.08% | 8.76% | 16.4% | -1.97% | 3% | 2.52% | 9.24% | 9.72% | 19.2% | 18.7%
2 | O=C(c1ccc(F)cc1)N1CC(COc2ccc(Br)cc2)(C(=O)O)C1 [PF-04475866] | -2.23% | 30.2% | 16.6% | -7.87% | -9.45% | -8.88% | 15.7% | -4.09% | 12.1% | 11.3% | 27.9% | -5.33%
